Source: patent publication US10618916B2, “Heterocyclic compounds as immunomodulators” (Incyte Corporation, priority 2018, dated 2020)

Key:
[1] = system: U2OS/PD-L1 cells and Jurkat-PD-1-SHP cells; assay: Src homology region 2 domain-containing phosphatase (SHP) assay; assay type: cell-based; conditions: Homo sapiens, U2OS
Protocol: Example B. Src Homology Region 2 Domain-Containing Phosphatase (SHP) Assay
U2OS/PD-L1 cells (DiscoveRx Corporation) were maintained in McCoy's 5A medium with addition of 10% FBS, 0.25 μg/ml Puromycin. After removing the culture media, the cell medium was replaced with assay medium (RPMI1640 medium with 1% FBS). The U2OS/PD-L1 cells were then added in 384-well black clear bottom assay plate (CELLCOAT® Tissue Culture Plates, Greiner Bio-One) at 5000 cells per well in 20 μL assay medium. Test compounds were prepared by serial dilution in DMSO and 125 nL compound were first transferred to the 384 REMP plate well (Thermofisher) by ECHO liquid handler (Labcyte) followed with addition of 27.5 μL assay medium. 5 μL/well compounds in the assay medium were transferred to the cell plate with 0.05% DMSO in the final assay at […]. Jurkat-PD-1-SHP cells (DiscoveRx Corporation) were cultured in RPMI1640 medium supplemented with 10% FBS, 250 μg/ml Hygromycin B, 500 μg/ml G418. After the replacement of culture media with assay medium, 5,000 Jurkat-PD-1-SHP cells in 20 μL were dispensed into each well. The assay plate was incubated at 37° C., 5% CO2 for 2 hours before 2.5 μL PathHunter reagent 1 (DiscoveRx Corporation) were added to each well. The assay plate was shaken for 1 min at 350 rpm in the dark followed with addition of 10 μL PathHunter reagent 2 (DiscoveRx Corporation). Chemiluminescent signal was recorded with TopCount reader (Perkin Elmer) after incubation at room temperature for 1 hour. Wells with DMSO were served as the positive controls and wells containing no cells were used as negative controls. IC50 determination was performed by fitting the curve of percentage of control activity versus the log of the compound concentration using the GraphPad Prism 6.0 software.

[2] = target: PD-1/PD-L1 protein/protein interaction (recombinant human PD-L1 and human PD-1) (Homo sapiens (Human), UniProt Q9NZQ7); assay: Homogeneous Time-Resolved Fluorescence (HTRF) PD-1/PD-L1 binding assay
PD-1/PD-L1 protein/protein interaction (recombinant human PD-L1 and human PD-1), sequence (Q9NZQ7 19-238): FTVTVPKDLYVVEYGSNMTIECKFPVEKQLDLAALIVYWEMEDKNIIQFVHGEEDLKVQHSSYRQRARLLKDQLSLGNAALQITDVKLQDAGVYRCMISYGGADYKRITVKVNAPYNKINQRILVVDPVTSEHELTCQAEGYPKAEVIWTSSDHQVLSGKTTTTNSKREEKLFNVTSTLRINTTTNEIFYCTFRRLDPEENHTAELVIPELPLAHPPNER
Protocol: Example A. Homogeneous Time-Resolved Fluorescence (HTRF) PD-1/PD-L1 Binding Assay
The assays were conducted in a standard black 384-well polystyrene plate with a final volume of 20 μL. Inhibitors were first serially diluted in DMSO and then added to the plate wells before the addition of other reaction components. The final concentration of DMSO in the assay was 1%. The assays were carried out at 25° C. in the PBS buffer (pH 7.4) with 0.05% Tween-20 and 0.1% BSA. Recombinant human PD-L1 protein (19-238) with a His-tag at the C-terminus was purchased from AcroBiosystems (PD1-H5229). Recombinant human PD-1 protein (25-167) with Fc tag at the C-terminus was also purchased from AcroBiosystems (PD1-H5257). PD-L1 and PD-1 proteins were diluted in the assay buffer and 10 μL was added to the plate well. Plates were centrifuged and proteins were preincubated with inhibitors for 40 minutes. The incubation was followed by the addition of 10 μL of HTRF detection buffer supplemented with Europium cryptate-labeled anti-human IgG (PerkinElmer-AD0212) specific for Fc and anti-His antibody conjugated to SureLight®-Allophycocyanin (APC, PerkinElmer-AD0059H). After centrifugation, the plate was incubated at 25° C. for 60 min. before reading on a PHERAstar FS plate reader (665 nm/620 nm ratio). Final concentrations in the assay were—3 nM PD1, 10 nM PD-L1, 1 nM europium anti-human IgG and 20 nM anti-His-Allophycocyanin. IC50 determination was performed by fitting the curve of percent control activity versus the log of the inhibitor concentration using the GraphPad Prism 5.0 software.

[3] = system: PD-L1 aAPC/CHO-K1 cells and Jurkat-PD-1-NFAT effector cells; assay: Nuclear factor of activated T-cells (NFAT) assay; assay type: cell-based; conditions: Cricetulus griseus, CHO-K1
Protocol: Example C. Nuclear Factor of Activated T-Cells (NFAT) Assay
PD-L1 aAPC/CHO-K1 cells (Promega) were maintained in F-12 medium with addition of 10% FBS, 200 μg/ml Hygromycin B, 250 μg/ml Geneticin (G418). Jurkat-PD-1-NFAT effector cells (Promega) were cultured in RPMI 1640 medium supplemented with 10% FBS, 100 μg/ml Hygromycin B, 500 μg/ml G418. The culture media of PD-L1 aAPC/CHO-K1 cells were first replaced with assay medium (RPMI1640 medium with 1% FBS). The PD-L1 aAPC/CHO-K1 cells were then added in a white 384-well white clear bottom assay plate (CELLCOAT® Tissue Culture Plates, Greiner Bio-One) at 8000 per well in 10 μL assay medium. Test compounds were prepared by serial dilution in DMSO and 0.8 μL test compounds in DMSO were first transferred to the 384 REMP plate well (Thermofisher) by PlateMate Plus (Thermofisher) followed with addition of 50 μL plating medium. 5 μL compounds in the assay medium were transferred to the cells with 0.4% DMSO in the final assay at 2 μM. After removing the culture media, 10,000 Jurkat-PD-1-NFAT effector cells in 5 μL assay medium was dispensed into each well. The assay plate was incubated at 37° C., 5% CO2 for 24 hours. After the assay plate was equilibrated to room temp for 15 minutes, 20 µL/well of Bio-Glo™ reagent (Promega) were added. After 8 minutes incubation at room temperature, luminescence was read at with Pherastar microplate reader (BMG Labtech). The fold of induction (FOI) was calculated based on the ratio of luminescence normalized to the DMSO wells within each assay plate. The maximum percentage of induction was reported based on the ratio between the highest FOI of each compound and the maximum FOI of control compound within each assay plate. Wells with DMSO were served as the negative controls and wells containing control compound with the highest FOI were used as positive controls. EC50 determination was performed by fitting the curve of percent control activity versus the log of the compound concentration using the GraphPad Prism 6.0 software.

Compound | IC50 [1] [nM] | IC50 [2] [nM] | EC50 [3] [nM]
CC(C)N1CCc2c(nc(C(=O)Nc3cccc(-c4cccc(NC(=O)c5nc6c(n5C)CCN(CCC57CCC(C(=O)O)(CC5)C7)C6)c4Cl)c3Cl)n2C)C1 [Example 5, 4-(2-(2-((2,2′-dichloro-3′-(5-isopropyl-1-methyl-4,5,6,7-tetrahydro-1H-imidazo[4,5-c]pyridine-2-carboxamido)-[1,1′-biphenyl]-3-yl)carbamoyl)-1-methyl-1,4,6,7-tetrahydro-5H-imidazo[4,5-c]pyridin-5-yl)ethyl)bicyclo[2.2.1]heptane-1-carboxylic acid] | ≤ 10 | ≤ 5 | ≤ 10
Cn1c(C(=O)Nc2cccc(-c3cccc(NC(=O)c4nc5c(n4C)CCN(C4CCC4)C5)c3Cl)c2Cl)nc2c1CCN(CCC13CCC(C(=O)O)(CC1)C3)C2 [Example 6, 4-(2-(2-((2,2′-dichloro-3′-(5-cyclobutyl-1-methyl-4,5,6,7-tetrahydro-1H-imidazo[4,5-c]pyridine-2-carboxamido)-[1,1′-biphenyl]-3-yl)carbamoyl)-1-methyl-1,4,6,7-tetrahydro-5H-imidazo[4,5-c]pyridin-5-yl)ethyl)bicyclo[2.2.1]heptane-1-carboxylic acid] | ≤ 10 | ≤ 5 | 10 to 100
Cn1c(C(=O)Nc2cccc(-c3cccc(NC(=O)c4nc5c(n4C)CCN(Cc4cc(C(=O)O)n[nH]4)C5)c3Cl)c2Cl)nc2c1CCN(CCC13CCC(C(=O)O)(CC1)C3)C2 [Example 26, 5-((2-((3′-(5-(2-(4-carboxybicyclo[2.2.1]heptan-1-yl)ethyl)-1-methyl-4,5,6,7-tetrahydro-1H-imidazo[4,5-c]pyridine-2-carboxamido)-2,2′-dichloro-[1,1′-biphenyl]-3-yl)carbamoyl)-1-methyl-1,4,6,7-tetrahydro-5H-imidazo[4,5-c]pyridin-5-yl)methyl)-1H-pyrazole-3-carboxylic acid] | ≤ 10 | ≤ 5 | 10 to 100
Cc1c(NC(=O)c2nc3c(n2C)CCN(C)C3)cccc1-c1cccc(NC(=O)c2nc3c(n2C)CCN(CCC24CCC(C(=O)O)(CC2)C4)C3)c1Cl [Example 29, 4-(2-(2-((2-chloro-3′-(1,5-dimethyl-4,5,6,7-tetrahydro-1H-imidazo[4,5-c]pyridine-2-carboxamido)-2′-methyl-[1,1′-biphenyl]-3-yl)carbamoyl)-1-methyl-1,4,6,7-tetrahydro-5H-imidazo[4,5-c]pyridin-5-yl)ethyl)bicyclo[2.2.1]heptane-1-carboxylic acid] | ≤ 10 | ≤ 5 | 10 to 100
Cc1c(NC(=O)c2nc3c(n2C)CCN(CCC24CCC(C(=O)O)(CC2)C4)C3)cccc1-c1cccc(NC(=O)c2nc3c(n2C)CCN(C)C3)c1Cl [Example 39, 4-(2-(2-((2′-chloro-3′-(1,5-dimethyl-4,5,6,7-tetrahydro-1H-imidazo[4,5-c]pyridine-2-carboxamido)-2-methyl-[1,1′-biphenyl]-3-yl)carbamoyl)-1-methyl-1,4,6,7-tetrahydro-5H-imidazo[4,5-c]pyridin-5-yl)ethyl)bicyclo[2.2.1]heptane-1-carboxylic acid] | ≤ 10 | ≤ 5 | 10 to 100
Cn1c(C(=O)Nc2cccc(-c3cccc(NC(=O)c4nc5c(n4C)CCNC5)c3C#N)c2Cl)nc2c1CCN(CCC13CCC(C(=O)O)(CC1)C3)C2 [Example 46, 4-(2-(2-((2-chloro-2′-cyano-3′-(1-methyl-4,5,6,7-tetrahydro-1H-imidazo[4,5-c]pyridine-2-carboxamido)-[1,1′-biphenyl]-3-yl)carbamoyl)-1-methyl-1,4,6,7-tetrahydro-5H-imidazo[4,5-c]pyridin-5-yl)ethyl)bicyclo[2.2.1]heptane-1-carboxylic Acid] | ≤ 10 | ≤ 5 | 10 to 100
CN1CCc2c(nc(C(=O)Nc3cccc(-c4cccc(NC(=O)c5nc6c(n5C)CCN(CCC57CCC(C(=O)O)(CC5)C7)C6)c4Cl)c3C#N)n2C)C1 [Example 48, 4-(2-(2-((2-chloro-2′-cyano-3′-(1,5-dimethyl-4,5,6,7-tetrahydro-1H-imidazo[4,5-c]pyridine-2-carboxamido)-[1,1′-biphenyl]-3-yl)carbamoyl)-1-methyl-1,4,6,7-tetrahydro-5H-imidazo[4,5-c]pyridin-5-yl)ethyl)bicyclo[2.2.1]heptane-1-carboxylic acid] | ≤ 10 | ≤ 5 | 10 to 100
Cn1c(C(=O)Nc2cccc(-c3cccc(NC(=O)c4nc5c(n4C)CCN(CC46CCC(C(=O)O)(CC4)C6)C5)c3C#N)c2Cl)nc2c1CCN(CCC13CCC(C(=O)O)(CC1)C3)C2 [Example 52, 4-((2-((3′-(5-(2-(4-carboxybicyclo[2.2.1]heptan-1-yl)ethyl)-1-methyl-4,5,6,7-tetrahydro-1H-imidazo[4,5-c]pyridine-2-carboxamido)-2′-chloro-2-cyano-[1,1′-biphenyl]-3-yl)carbamoyl)-1-methyl-1,4,6,7-tetrahydro-5H-imidazo[4,5-c]pyridin-5-yl)methyl)bicyclo[2.2.1]heptane-1-carboxylic acid] | 10 to 100 | ≤ 5 | 100 to 500
Cc1c(NC(=O)c2nc3c(n2C)CCNC3)cccc1-c1cccc(NC(=O)c2nc3c(n2C)CCN(CCC24CCC(C(=O)O)(CC2)C4)C3)c1C [Example 53, 4-(2-(2-((2,2′-dimethyl-3′-(1-methyl-4,5,6,7-tetrahydro-1H-imidazo[4,5-c]pyridine-2-carboxamido)-[1,1′-biphenyl]-3-yl)carbamoyl)-1-methyl-1,4,6,7-tetrahydro-5H-imidazo[4,5-c]pyridin-5-yl)ethyl)bicyclo[2.2.1]heptane-1-carboxylic Acid] | ≤ 10 | ≤ 5 | 10 to 100
Cc1c(NC(=O)c2nc3c(n2C)CCN(CCC24CCC(C(=O)O)(CC2)C4)C3)cccc1-c1cccc(NC(=O)c2nc3c(n2C)CCN(CC24CCC(C(=O)O)(CC2)C4)C3)c1C [Example 55, 4-((2-((3′-(5-(2-(4-carboxybicyclo[2.2.1]heptan-1-yl)ethyl)-1-methyl-4,5,6,7-tetrahydro-1H-imidazo[4,5-c]pyridine-2-carboxamido)-2,2′-dimethyl-[1,1′-biphenyl]-3-yl)carbamoyl)-1-methyl-1,4,6,7-tetrahydro-5H-imidazo[4,5-c]pyridin-5-yl)methyl)bicyclo[2.2.1]heptane-1-carboxylic acid] | ≤ 10 | ≤ 5 | 10 to 100
